Data on two compounds can be found in patent US8962664B2, “Selective glycosidase inhibitors and uses thereof” (Simon Fraser University, priority 2006, dated 2015).

What all share (assay type): in vivo, Sprague-Dawley rats
Test [1] has as its system O-GlcNAc levels in cardiac tissue. The experiment in a line: Elevation of rat cardiac O-GlcNAc levels (IV). The settings on record: rats, IV 50 mg/kg, 0 to 20 h, Western blot. As to the method:
The effect of intravenous (IV) administration of (3aR,5R,6S,7R,7aR)-2-(ethylamino)-5-(hydroxymethyl)-5,6,7,7a-tetrahydro-3aH-pyrano[3,2-d]thiazole-6,7-diol (Compound 25, hereinafter referred to as NAG-AE) on O-GlcNAc levels in cardiac tissue in Sprague-Dawley rats was measured. Animals were obtained from Charles-River as 5-week old healthy male Sprague-Dawley rats. Animals were given one week to acclimatize and at six weeks of age the appropriate treatment was initiated. Nine animals were given intravenous tail vein injections of 50 mg/kg NAG-AE; following injection, one animal was sacrificed at each of the following time points: 0, 1, 2, 4, 7, 10, 13, 16, and 20 h. In addition, one animal was given an injection of vehicle (PBS—pH 7.4) and sacrificed two hours later for use as a control. Tissues were removed from sacrificed animals as quickly as possible to minimize post-mortem delay. The hearts from each animal were immediately frozen in liquid nitrogen and stored at −80° C. until further use. Homogenization of the cardiac tissue was carried out by manual grinding followed by homogenization in cell lysis buffer (50 mM Tris, pH 8.0, 1 mM PMSF, 0.1% NP-40, 1 mM NAG-Bt) using a tissue homogenizer (IKA) at 4° C. Insoluble cell debris was removed by centrifugation at 17,900×g for 20 minutes at 4° C. and the resulting supernatant was stored at −20° C. until use. […]

The test system of test [2] is tau phosphorylation levels in brain tissue. The test is described as follows: Decrease of rat brain tau phosphorylation levels (NAG-Bt). The following applies: rats, 100 mg/kg/day in food for five days then 50 mg/kg IV, Western blot. As to the method: The effect of oral administration of NAG-Bt on tau phosphorylation levels in brain tissue in Sprague-Dawley rats was measured. All animals were obtained from Charles-River as 5-week old healthy male Sprague-Dawley rats. Animals were given one week to acclimatize and at six weeks of age the appropriate treatment was initiated. Four animals were fed food containing 100 mg/kg/day of NAG-Bt for five days. Four additional animals fed with food containing no inhibitor were used as controls. At the end of five days, the animals were fasted for 11 hours, then the four animals that received NAG-Bt in food were each given an intravenous tail vein injection of 50 mg/kg NAG-Bt. All animals were fasted for a further 5 hours, then they were sacrificed and brains were removed, stored, and processed as described in Example 29.
Western blotting of the samples thus obtained was carried out using the α-O-GlcNAc antibody (CTD110.6; Covance) and a-Actin antibody as described previously.^106 For Tau blotting, pS199, pS214, pS217, pS262, pS396, and pS422 (Biosource), Tau-5 (Lab Vision; a non-PTM dependent tau antibody), Tau-1 (Chemicon; selective for nonphosphorylated Ser195, Ser198, Ser199, and Ser202), and pS404 (Sigma) antibodies were used according to the manufacturer's protocols. Equal amounts of homogenized brain tissue from an animal treated with and without NAG-Bt were separated by SDS-PAGE followed by probing with each of the primary antibodies and an appropriate secondary antibody (either an anti-mouse or anti-rabbit IgG-HRP conjugate, as appropriate). The resulting Western blots are shown in FIGS. 2A-I, and reveal decreases of brain tau phosphorylation at multiple sites following treatment with NAG-Bt; lanes labeled “+” indicate samples from animals receiving NAG-Bt, while lanes labeled “-” indicate samples from animals receiving vehicle alone.

Test [3] concerns levels of O-GlcNAc modification in brain and muscle tissue. The experiment in a line: Dose-dependent elevation of rat brain and muscle O-GlcNAc levels (IV). The following applies: rats, seven hours. As to the method:
The effect of intravenous (IV) administration of (3aR,5R,6S,7R,7aR)-5-(hydroxymethyl)-2-propyl-5,6,7,7a-tetrahydro-3aH-pyrano[3,2-d]thiazole-6,7-diol (Compound 54; hereinafter referred to as NAG-Bt) on levels of O-GlcNAc modification in brain and muscle tissue in Sprague-Dawley rats was measured. Animals were obtained from Charles-River as 5-week old healthy male Sprague-Dawley rats. Animals were given one week to acclimatize and at six weeks of age the appropriate treatment was initiated. Eight animals were given intravenous tail vein injections of various concentrations of NAG-Bt or vehicle alone (PBS); doses of NAG-Bt included 0, 2, 5, 10, 25, 50, 100, and 250 mg/kg. Seven hours later animals were sacrificed and tissues were removed from animals as quickly as possible to minimize post-mortem delay. Tissues were immediately frozen in liquid nitrogen and stored at −80° C. until further use. Homogenization of the tissues was carried out by manual grinding followed by homogenization in cell lysis buffer (50 mM Tris, pH 8.0, 1 mM PMSF, 0.1% NP-40, 1 mM NAG-Bt) using a tissue homogenizer (IKA) at 4° C. Insoluble cell debris was removed by centrifugation at 17,900×g for 20 minutes at 4° C. and the resulting supernatant was stored at −20° C. until use.
Western blotting of the samples thus obtained was carried out using the α-O-GlcNAc antibody (CTD110.6; Covance) and the α-actin antibody as described previously.^106 Equal amounts of homogenized brain and muscle tissue from animals treated with NAG-Bt or vehicle alone were separated by SDS-PAGE followed by probing with the primary a-O-GlcNAc antibody and an anti-IgM-mouse IgG-HRP conjugate. […] FIGS. 1C and 1D are Western blots of samples loaded in the upper panels (FIGS. 1A and 1B) probed using anti-β-actin mAb clone AC-40 followed by an anti-mouse IgG-HRP conjugate, and reveal equivalent sample loading.

The mark [4] stands for this setting: IV 250 mg/kg, densitometry of Western blot.

In the case of `CCNC1=N[C@@H]2[C@@H](O)[C@H](O)[C@@H](CO)O[C@@H]2S1` [NAG-AE, (3aR,5R,6S,7R,7aR)-2-(ethylamino)-5-(hydroxymethyl)-5,6,7,7a-tetrahydro-3aH-pyrano[3,2-d]thiazole-6,7-diol], the “O-GlcNAc levels in cardiac tissue” value in test [1] is “time-dependent elevation”.
For the compound `CCCC1=N[C@@H]2[C@@H](O)[C@H](O)[C@@H](CO)O[C@@H]2S1` [NAG-Bt, (3aR,5R,6S,7R,7aR)-5-(hydroxymethyl)-2-propyl-5,6,7,7a-tetrahydro-3aH-pyrano[3,2-d]thiazole-6,7-diol], in test [2], the “brain tau phosphorylation at Ser214 and Ser404” value is on record as “increases phosphorylation”; the “brain tau phosphorylation at Thr231 and Ser396” value is reported as “essentially blocks phosphorylation”; the “brain tau phosphorylation at the Tau-1 epitope (Ser195, Ser198, Ser199, Ser202), Ser199, Ser262, Ser396, Ser422, and Thr231” value is listed as “decreases in phosphorylation”. Besides, in test [3] (IV 0 to 250 mg/kg, Western blot), the “O-GlcNAc levels in brain and muscle tissue” value is on record as “dose-dependent elevation”. Further, in test [3] (setting [4]), the “elevation of O-GlcNAc levels over baseline in brain tissue” value is “roughly 25 fold” and the “elevation of O-GlcNAc levels over baseline in muscle tissue” value is recorded as “roughly 10 fold”. For the same compound, the “minimum IV dose required for an observable effect in brain” value in test [3] (IV, O-GlcNAc levels) was “roughly 5 mg/kg”.
